Laboratory results: ChEMBL document CHEMBL1201862, “PubChem BioAssay data set” (2004)
Calls of active or inactive are those of the source.

Experiments:
[1] = target: T1, Aminopeptidase N (Plasmodium falciparum FcB1/Columbia, UniProt O96935); assay: malaria alanyl aminopeptidase activity blockers – biochemical, fluorogenic H-Leu-NHMec substrate, 1536-well (AID 1445); set-up: species or system Plasmodium falciparum 3D7, 3D7
T1 sequence (O96935 whole entry): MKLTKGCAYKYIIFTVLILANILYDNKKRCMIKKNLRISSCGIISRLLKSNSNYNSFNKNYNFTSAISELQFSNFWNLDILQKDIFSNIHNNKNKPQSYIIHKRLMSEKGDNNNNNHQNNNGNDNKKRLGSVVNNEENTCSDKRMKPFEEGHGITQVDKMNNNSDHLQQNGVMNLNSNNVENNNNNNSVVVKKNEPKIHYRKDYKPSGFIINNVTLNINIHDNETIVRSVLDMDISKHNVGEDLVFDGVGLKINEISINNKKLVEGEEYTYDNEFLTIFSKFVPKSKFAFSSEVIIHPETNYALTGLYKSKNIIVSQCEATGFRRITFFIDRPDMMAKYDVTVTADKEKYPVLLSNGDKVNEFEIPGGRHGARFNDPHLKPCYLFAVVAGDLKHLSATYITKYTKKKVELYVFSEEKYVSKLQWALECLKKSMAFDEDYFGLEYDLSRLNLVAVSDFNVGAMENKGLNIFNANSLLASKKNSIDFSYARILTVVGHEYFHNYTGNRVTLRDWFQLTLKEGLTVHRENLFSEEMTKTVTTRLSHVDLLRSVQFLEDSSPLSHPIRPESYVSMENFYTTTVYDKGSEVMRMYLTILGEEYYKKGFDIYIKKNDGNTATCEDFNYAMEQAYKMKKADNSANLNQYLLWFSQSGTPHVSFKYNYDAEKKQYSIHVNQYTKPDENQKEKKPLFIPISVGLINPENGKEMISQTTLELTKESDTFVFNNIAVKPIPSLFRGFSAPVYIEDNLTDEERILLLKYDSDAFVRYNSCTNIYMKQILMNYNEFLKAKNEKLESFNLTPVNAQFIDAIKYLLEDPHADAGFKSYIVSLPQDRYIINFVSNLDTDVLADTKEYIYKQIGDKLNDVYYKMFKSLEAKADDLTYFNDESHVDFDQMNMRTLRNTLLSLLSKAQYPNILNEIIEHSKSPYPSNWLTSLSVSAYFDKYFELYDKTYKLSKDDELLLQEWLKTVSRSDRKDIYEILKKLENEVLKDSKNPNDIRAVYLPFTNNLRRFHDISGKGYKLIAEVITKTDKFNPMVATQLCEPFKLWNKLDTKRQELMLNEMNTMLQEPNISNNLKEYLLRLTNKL

[2] = system: INS1; assay: INS-1E survival protection against cytokine death – cell-based, luminescence, retest, dose response (AID 449756); format: functional; conditions: Rattus norvegicus;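 note: cell death triggered by IL-1 beta plus TNF-alpha plus IFN-gamma mixture; protective hits raise ATP signal compared with cytokine alone wells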
[3] = HEK-293T cell viability reduction – luminescence, B-cell screen hits, cytotoxicity control for BCR NF-kB inhibitor project, dose response (AID 489021); format: functional, cell-based;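 note: HEK-293T cells carrying an NF-kB luciferase reporter; cells exposed to compound for about 14 hours before viability readout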
[4] = target: T2, Leucine aminopeptidase (Plasmodium falciparum 3D7, UniProt Q8IL11); assay: P. falciparum M17LAP inhibitors, primary screen, biochemical, fluorogenic H-Leu-NHMec substrate, 1536-well (AID 1619); format: functional
T2 sequence (Q8IL11 whole entry): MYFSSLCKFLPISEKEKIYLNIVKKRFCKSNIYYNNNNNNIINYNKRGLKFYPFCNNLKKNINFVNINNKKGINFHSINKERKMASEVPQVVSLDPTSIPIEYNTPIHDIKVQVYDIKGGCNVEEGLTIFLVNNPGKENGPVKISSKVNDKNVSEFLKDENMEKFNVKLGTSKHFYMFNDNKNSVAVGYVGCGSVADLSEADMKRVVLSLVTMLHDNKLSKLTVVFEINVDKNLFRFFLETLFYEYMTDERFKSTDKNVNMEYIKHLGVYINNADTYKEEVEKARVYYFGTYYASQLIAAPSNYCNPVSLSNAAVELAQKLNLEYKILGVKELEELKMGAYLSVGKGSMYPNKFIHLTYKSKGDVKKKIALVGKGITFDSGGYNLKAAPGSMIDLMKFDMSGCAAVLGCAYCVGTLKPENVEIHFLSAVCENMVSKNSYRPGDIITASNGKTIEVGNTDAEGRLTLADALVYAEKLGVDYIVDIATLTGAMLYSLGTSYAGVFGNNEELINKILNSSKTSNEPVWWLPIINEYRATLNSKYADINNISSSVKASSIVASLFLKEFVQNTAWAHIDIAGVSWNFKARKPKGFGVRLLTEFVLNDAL

[5] = target: T3, Voltage-gated N-type calcium channel alpha-1B subunit/Amyloid beta A4 precursor protein-binding family A member 1 (Homo sapiens, UniProt Q00975+Q02410); format: protein assay
[6] = target: T3, Voltage-gated N-type calcium channel alpha-1B subunit/Amyloid beta A4 precursor protein-binding family A member 1; format: protein assay; remark: listed apart in the source
[7] = target: T4, Tyrosine-protein phosphatase non-receptor type 7 (Homo sapiens, UniProt P35236); assay: redox-active compounds inhibiting HePTP phosphatase – biochemical, fluorescence, mechanism study (AID 2068); format: functional
T4 sequence (P35236 whole entry): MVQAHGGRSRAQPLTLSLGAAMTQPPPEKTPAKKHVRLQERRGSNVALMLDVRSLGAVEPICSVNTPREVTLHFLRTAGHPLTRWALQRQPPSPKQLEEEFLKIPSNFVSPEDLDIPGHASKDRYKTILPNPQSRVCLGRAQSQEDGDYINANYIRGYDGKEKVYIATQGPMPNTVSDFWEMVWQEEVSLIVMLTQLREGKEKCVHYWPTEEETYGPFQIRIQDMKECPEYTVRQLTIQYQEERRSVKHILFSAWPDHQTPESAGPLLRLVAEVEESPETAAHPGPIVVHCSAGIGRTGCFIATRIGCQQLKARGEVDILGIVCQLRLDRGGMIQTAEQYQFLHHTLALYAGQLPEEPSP

[8] = P. falciparum Dd2 growth inhibitors, dose response, SYBR Green, cherry-picked samples (AID 1159567); format: functional, cell-based
[9] = toxicity to human hepatoma HepG2 cells – cell-based, cherry-picked samples, cytotoxicity control, dose response (AID 1159577); format: functional
[10] = HEK-293T viability loss after treatment – luminescence, T-cell screen hits, cytotoxicity control for TCR NF-kB inhibitor project, dose response (AID 489026); format: functional, cell-based;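 note: cells exposed to compound about 14 hours before the viability readout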
[11] = NIH3T3 cell viability loss – ATP luminescence, mouse fibroblasts, counter-screen, dose response (AID 2010); format: functional, cell-based;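 note: cells exposed to compound for about 90 hours before reading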
[12] = fluconazole-exposed Candida albicans growth modulators – fluorescence, retest, confirmation (AID 2467); format: functional, cell-based
[13] = Trypanosoma cruzi growth suppression in host cells – NIH3T3 host cells, beta-gal luminescence, confirmation (AID 2044); format: functional, cell-based;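 note: intracellular parasites grown in NIH/3T3 mouse fibroblasts as host cells; luminescent beta-galactosidase reporter signal from transgenic T. cruzi replicating inside host cells; inhibitors lower the luminescence signal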
[14] = NIH-3T3 fibroblast cytotoxicity, dose response, cytotoxicity control, cell-based, fluorescence, Alamar Blue, secondary assay (AID 2327); format: functional;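 note: NIH-3T3 mouse fibroblasts cultured with fluconazole at 8 µg/mL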
[15] = cells

T3 sequence (Q00975 whole entry): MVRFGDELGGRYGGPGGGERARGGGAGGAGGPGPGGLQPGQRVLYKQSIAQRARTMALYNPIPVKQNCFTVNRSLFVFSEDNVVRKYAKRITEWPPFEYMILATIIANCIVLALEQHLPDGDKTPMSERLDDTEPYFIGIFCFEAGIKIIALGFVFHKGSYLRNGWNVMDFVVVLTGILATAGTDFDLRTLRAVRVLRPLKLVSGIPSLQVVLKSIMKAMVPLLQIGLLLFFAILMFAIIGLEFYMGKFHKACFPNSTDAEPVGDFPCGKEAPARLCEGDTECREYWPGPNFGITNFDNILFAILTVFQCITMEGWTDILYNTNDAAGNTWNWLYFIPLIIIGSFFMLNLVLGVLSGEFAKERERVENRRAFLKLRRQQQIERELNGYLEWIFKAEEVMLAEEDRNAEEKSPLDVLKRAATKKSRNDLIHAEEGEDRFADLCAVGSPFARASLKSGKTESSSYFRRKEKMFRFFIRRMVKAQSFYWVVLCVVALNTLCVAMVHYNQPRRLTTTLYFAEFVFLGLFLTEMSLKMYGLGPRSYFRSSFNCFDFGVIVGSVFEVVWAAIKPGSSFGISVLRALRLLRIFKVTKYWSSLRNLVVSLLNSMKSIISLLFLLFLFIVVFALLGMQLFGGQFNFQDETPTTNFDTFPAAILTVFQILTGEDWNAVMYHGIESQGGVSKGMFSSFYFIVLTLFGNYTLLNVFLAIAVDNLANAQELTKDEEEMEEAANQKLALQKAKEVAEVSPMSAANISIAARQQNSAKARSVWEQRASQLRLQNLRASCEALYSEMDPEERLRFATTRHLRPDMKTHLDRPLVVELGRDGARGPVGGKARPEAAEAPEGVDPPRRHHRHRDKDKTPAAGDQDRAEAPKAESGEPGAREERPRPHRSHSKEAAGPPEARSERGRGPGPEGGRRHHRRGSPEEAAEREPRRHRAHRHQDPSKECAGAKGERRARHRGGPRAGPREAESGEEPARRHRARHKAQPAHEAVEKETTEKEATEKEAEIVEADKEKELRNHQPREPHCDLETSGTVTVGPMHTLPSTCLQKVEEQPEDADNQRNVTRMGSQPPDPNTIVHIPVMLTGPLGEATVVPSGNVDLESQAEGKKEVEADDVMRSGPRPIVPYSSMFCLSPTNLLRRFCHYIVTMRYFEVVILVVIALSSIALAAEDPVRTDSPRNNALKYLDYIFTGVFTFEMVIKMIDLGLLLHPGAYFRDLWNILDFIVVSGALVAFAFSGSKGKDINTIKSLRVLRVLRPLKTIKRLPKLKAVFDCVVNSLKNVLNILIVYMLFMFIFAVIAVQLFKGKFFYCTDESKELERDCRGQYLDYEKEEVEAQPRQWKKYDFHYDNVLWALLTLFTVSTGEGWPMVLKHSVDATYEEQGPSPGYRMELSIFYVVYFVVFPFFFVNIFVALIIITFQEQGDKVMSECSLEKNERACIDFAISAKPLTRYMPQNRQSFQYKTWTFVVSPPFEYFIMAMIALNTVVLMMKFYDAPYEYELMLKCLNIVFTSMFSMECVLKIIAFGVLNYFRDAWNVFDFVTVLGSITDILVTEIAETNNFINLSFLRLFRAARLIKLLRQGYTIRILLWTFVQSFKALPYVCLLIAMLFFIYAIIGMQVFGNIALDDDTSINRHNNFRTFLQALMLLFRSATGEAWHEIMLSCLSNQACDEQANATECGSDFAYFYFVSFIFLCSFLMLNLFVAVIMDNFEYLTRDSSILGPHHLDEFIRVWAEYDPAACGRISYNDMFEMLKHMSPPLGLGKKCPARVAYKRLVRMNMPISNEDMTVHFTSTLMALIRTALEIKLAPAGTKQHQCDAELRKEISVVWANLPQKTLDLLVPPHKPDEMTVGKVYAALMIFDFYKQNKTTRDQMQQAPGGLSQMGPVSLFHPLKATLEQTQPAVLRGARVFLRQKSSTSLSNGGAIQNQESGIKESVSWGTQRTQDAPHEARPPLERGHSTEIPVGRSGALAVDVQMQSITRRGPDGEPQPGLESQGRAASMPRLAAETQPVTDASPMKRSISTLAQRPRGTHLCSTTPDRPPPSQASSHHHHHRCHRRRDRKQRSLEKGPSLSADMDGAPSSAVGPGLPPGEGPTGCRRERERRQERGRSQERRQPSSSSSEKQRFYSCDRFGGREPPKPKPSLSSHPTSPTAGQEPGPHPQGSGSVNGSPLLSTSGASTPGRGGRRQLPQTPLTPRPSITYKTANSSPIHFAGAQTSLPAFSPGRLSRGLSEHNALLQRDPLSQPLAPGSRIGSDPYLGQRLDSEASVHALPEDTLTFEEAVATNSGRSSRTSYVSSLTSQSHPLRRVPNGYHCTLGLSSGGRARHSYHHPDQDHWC
T3 sequence (Q02410 whole entry): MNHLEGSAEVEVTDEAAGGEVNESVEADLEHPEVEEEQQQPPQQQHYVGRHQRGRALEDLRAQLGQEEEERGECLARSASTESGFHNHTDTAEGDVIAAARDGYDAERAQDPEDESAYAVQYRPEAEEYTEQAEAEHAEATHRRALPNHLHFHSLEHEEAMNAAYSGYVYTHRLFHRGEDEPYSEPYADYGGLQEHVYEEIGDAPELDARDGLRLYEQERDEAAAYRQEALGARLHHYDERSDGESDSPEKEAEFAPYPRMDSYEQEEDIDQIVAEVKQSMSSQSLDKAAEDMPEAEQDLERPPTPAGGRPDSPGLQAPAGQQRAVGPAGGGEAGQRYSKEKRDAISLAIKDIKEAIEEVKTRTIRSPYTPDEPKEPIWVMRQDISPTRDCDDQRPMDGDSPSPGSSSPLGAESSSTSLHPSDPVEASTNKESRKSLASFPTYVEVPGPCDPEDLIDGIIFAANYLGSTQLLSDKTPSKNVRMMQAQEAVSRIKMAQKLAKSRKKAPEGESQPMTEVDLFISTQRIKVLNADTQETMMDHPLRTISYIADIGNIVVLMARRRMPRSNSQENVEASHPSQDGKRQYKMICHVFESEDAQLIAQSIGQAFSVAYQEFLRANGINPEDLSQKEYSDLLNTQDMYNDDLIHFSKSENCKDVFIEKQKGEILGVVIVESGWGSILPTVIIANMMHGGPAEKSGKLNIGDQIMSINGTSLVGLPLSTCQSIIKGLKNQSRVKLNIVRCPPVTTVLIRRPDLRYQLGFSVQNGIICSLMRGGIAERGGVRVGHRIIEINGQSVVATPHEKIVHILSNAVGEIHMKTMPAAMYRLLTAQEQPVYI

Question: Which IC50 [1] does the source give for `Cc1c(C)c2cc(Cl)c(O)c(CN3CCCC(C)C3)c2oc1=O` (stereo not given) here?
Answer: Its IC50 is 43.1 µM (active).

Question: What does the source list for `O=C(NNC(=O)c1ccccc1O)c1ccc(Cl)c(S(=O)(=O)N2CCc3ccccc32)c1`?
Answer: AC50 [2]: 4.28 µM (active); IC50 [3]: 77.9 µM (inactive)

Question: With `COc1ccc(-c2[nH]ncc2/C=C(\C#N)C(=O)NC2CC2)cc1` as the molecule, how does the IC50 [4] read?
Answer: Its IC50 is 36.9 µM (active).

Question: Which IC50 [4] does the source give for `O=C(CSc1ccccc1C(=O)O)NCc1ccc(Cl)cc1` here?
Answer: The IC50 was 17.4 µM (active).

Question: With `CCCCCCCCc1nnc(SC(C)C(=O)O)[nH]1` (stereo not given) as the molecule, how does the IC50 [4] read?
Answer: Its IC50 is 5.32 µM (active).

Question: Which results are given for `O=C(CCN1C(=O)/C(=C/c2ccc(Cl)cc2)SC1=S)NC1C=CS(=O)(=O)C1` (stereo not given)?
Answer: IC50 [5]: 8.45 µM (active); IC50 [6]: > 50 µM (inactive)

Question: For `O=C(Nc1ccc2nc(-c3ccco3)c(-c3ccco3)nc2c1)N1CCSCC1`, which IC50 [7] is on record?
Answer: The IC50 was 3.36 µM (active).

Question: With `COc1ccc(C(=O)N/N=C/c2ccc(OC)c(CN3CCCc4ccccc43)c2)cc1` as the molecule, how does the IC50 [3] read?
Answer: The IC50 was > 80 µM (inactive).

Question: With `N#C[C@H]1[C@H](c2ccc(C#CC3CCCCC3)cc2)[C@@H](CO)N1C(=O)Nc1ccc(F)cc1` as the molecule, how does the AC50 [8] read?
Answer: Its AC50 is 4.35 µM (active).

Question: And the AC50 [9]?
Answer: Its AC50 is 9.27 µM (active).

Question: For `C[C@@H]1CN([C@H](C)CO)C(=O)c2c(c3ccccc3n2C)-c2ccccc2CO[C@@H]1CN(C)Cc1cccc(O)c1`, which AC50 [8] is on record?
Answer: Its AC50 is 4.04 µM (active).

Question: What about the AC50 [9] of the same molecule?
Answer: Its AC50 is 17.2 µM (active).

Question: For `CCCCCCCn1c2c(c(=N)c3ccccc31)CCC2`, which IC50 [10] is on record?
Answer: The IC50 was 72.2 µM (inactive).

Question: What about the EC50 [11] of the same molecule?
Answer: The EC50 was 25.2 µM (active).

Question: What about the EC50 [12] of the same molecule?
Answer: Its EC50 is 4.4 µM (active).

Question: What about the EC50 [13] of the same molecule?
Answer: Its EC50 is < 0.1 µM (active).

Question: And the EC50 [14]?
Answer: The EC50 was > 160 µM (inactive).

Question: What about the EC50 [15] of the same molecule?
Answer: The EC50 was < 0.004 µM (active).
